*1 amine or outer side, *2 acyl side, *3 side chain or, on linkers, in order; H or OH if unused. Where a SMILES comes first, the peptide text is derived from it. Bridges are numbered along the chain shown (N, C = ends). Roman numbers before positions name the chains, in order. Side-chain parts run from the residue outwards. [ ]: non-standard residue; d: D form. The star is where a group is joined. C18 diacid = O=C(O)CCCCCCCCCCCCCCCCC(=O)*; γGlu = O=C(O)[C@H](CCC(=O)[*:2])N[*:1]; Desaminohistidyl = O=C(CCc1c[nH]cn1)*; Ac4c = NC1(C(=O)O)CCC1; AEEA = NCCOCCOCC(=O)O
Tests used:
[1] = target: T1, human GLP-1 receptor (Homo sapiens, UniProt P43220); assay: Assay (II)(a): GLP-1 receptor binding, [125I]GLP-1 displacement, SPA on BHK membranes; settings: displacement of [125I]GLP-1, membranes with human GLP-1 receptor; read-out: IC50 GLP-1R
T1 construct: expressed in transfected cells; host or cells: membranes of BHK cells, parent line BHKTS13, clone FCW467-12A
Outline: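 Membranes from BHK cells expressing human GLP-1 receptor with WGA SPA beads, [125I]GLP-1(7-36)NH2 (480 pM added solution) and compound in HEPES pH 7.4 buffer with EGTA, MgCl2, Tween 20. Incubated 2 h at 30° C; SPA counts fitted by non-linear regression to IC50 in nM.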

[2] = Assay (V): chemical stability assessment by RP-UPLC; type: physicochemical; settings: 14 days at 37° C. in phosphate buffer (pH 7.3)
Description: Assay (V): Chemical Stability Assessment
The purpose of this assay is to assess the chemical stability of the GLP-1 derivatives of the present invention in aqueous solutions.
Chemical stability of GLP-1 derivatives may be investigated by RP-UPLC separation and UV detection. Lyophilized samples are dissolved in a 8 mM Phosphate buffer pH 8.6, followed by adjustment to pH 7.3 using HCl to a final concentration of 333 μM. Samples are incubated for 14 days at 5° C. and 37° C. followed by RP-UPLC analysis. Purity is defined as the area percentage of the main peak in relation to the total area of all integrated peaks in each chromatogram. Purity loss, also referred to herein as chemical degradation, after 14 days at 37° C. is determined as the difference in purity between the samples incubated at 5° C. and 37° C., divided by the purity of the sample after incubation for 14 days at 5° C.
RP-UPLC analysis is performed using a Waters BEH130 2.1 mm×150 mm, 1.7 μm column operated at 50° C. and a flow rate of 0.4 mL/min using a mobile phase system consisting of A: 0.05% TFA in MQ-water, and B: 0.05% TFA in Acetonitrile. UV-detection is performed at 215 nm. The typical gradient profile used for most of the samples is shown below.
For some individual derivatives eluting at substantially different retention times compared with the majority of derivatives, some adjustments to the gradient profile are made to better enable purity assessment comparison across samples.

[3] = target: T1, human GLP-1 receptor; assay: Assay (I)(a): GLP-1 receptor potency, CRE luciferase reporter gene assay in BHK cells; type: cell-based; settings: BHK cells expressing human GLP-1 receptor, read-out: EC50 GLP-1R
Description: Assay (I): GLP-1 and Glucagon Receptor Potency The purpose of this example was to test the activity or potency, of the GLP-1 derivatives of the invention, in vitro. The in vitro potency is the measure of human GLP-1 receptor (GLP-1R) or glucagon receptor (glucagonR) activation, respectively, in a whole cell assay. In vitro potency was determined by measuring the cellular response of human GLP-1 or glucagon receptor activation, respectively, in a reporter gene assay. The assay was performed in a BHK cell line that stably expresses either the human GLP-1 receptor or the human glucagon receptor and comprises the DNA for the cAMP response element (CRE) coupled to a promoter and the gene for firefly luciferase (CRE luciferase). […] When assay incubation was completed, the luciferase substrate (luciferin) was added and the enzyme converted luciferin to oxyluciferin and produces bioluminescence. The luminescence was measured as the readout for the assay. (a) GLP-1 Receptor Activation The cells used in this assay (clone FCW467-12A/KZ10-1) were BHK cells with BHKTS13 as a parent cell line. The cells were derived from a clone (FCW467-12A) that expresses the human GLP-1 receptor and were established by further transfection with CRE luciferase to obtain the current clone. The cells were cultured at 5% CO2 in DMEM medium with 10% FBS, 1×GlutaMAX, 1 mg/ml G418, 240 nM MTX (methotrexate) and 1% pen/strep (penicillin/streptomycin). They were aliquoted and stored in liquid nitrogen. Before each assay, an aliquot was taken up and washed three times in PBS before being suspended at the desired concentration in assay medium. For 96-well plates the suspension was made to give a final concentration of 5×10EE3 cells/well. The following chemicals were used in the assay: Pluronic F-68 (10%) (Gibco 2404), Ovalbumin (Sigma A5503), DMEM w/o phenol red (Gibco 11880-028), 1 M Hepes (Gibco 15630), Glutamax 100× (Gibco 35050) and steadylite plus (PerkinElmer 6016757). Assay Medium consisted of DMEM w/o phenol red, 10 mM Hepes, 1×GlutaMAX, 2% Ovalbumin and 0.2% Pluronic F-68. Cell stocks were thawed in a 37° C. water bath. Cells were washed three times in PBS. The cells were counted and adjusted to 5×10EE3 cells/50 μl (1×10EE5 cells/ml) in Assay Medium. A 50 μl aliquot of cells was transferred to each well in the assay plate. Stocks of the test compounds and reference compounds were diluted to a concentration of […] in Assay Medium. Compounds were diluted 10-fold to give the following concentrations: 2×10EE-6 M, 2×10EE-7 M, 2×10EE-8 M; 2×10EE-9 M, 2×10EE-10 M, 2×10EE-11 M, 2×10EE-12 M and 2×10EE-13 M. For each compound a blank assay medium control was also included. A 50 μl aliquot of compound or blank was transferred from the dilution plate to the assay plate. Compounds were tested at the following final concentrations: 1×10EE-6 M, 1×10EE-7 M, 1×10EE-8 M; 1×10EE-9 M, 1×10EE-10 M, 1×10EE-11 M and 1×10EE-12 M and 1×10EE-13 M. The assay plate was incubated for 3 h in a 5% CO2 incubator at 37° C. The assay plate was removed from the incubator and allowed to stand at room temperature for 15 min. A 100 μl aliquot of steadylite plus reagent was added to each well of the assay plate (reagent is light sensitive). Each assay plate was covered with aluminum foil to protect it from light and shaken for 30 min at room temperature. Each assay plate was read in a Perkin Elmer TopCount NXT instrument. The data from the TopCount instrument was transferred to GraphPad Prism software. The software performed a non-linear regression (log(agonist) vs response-Variable slope (four parameter)). EC50 values were calculated by the software and reported in pM.

T1 sequence (P43220 24-463): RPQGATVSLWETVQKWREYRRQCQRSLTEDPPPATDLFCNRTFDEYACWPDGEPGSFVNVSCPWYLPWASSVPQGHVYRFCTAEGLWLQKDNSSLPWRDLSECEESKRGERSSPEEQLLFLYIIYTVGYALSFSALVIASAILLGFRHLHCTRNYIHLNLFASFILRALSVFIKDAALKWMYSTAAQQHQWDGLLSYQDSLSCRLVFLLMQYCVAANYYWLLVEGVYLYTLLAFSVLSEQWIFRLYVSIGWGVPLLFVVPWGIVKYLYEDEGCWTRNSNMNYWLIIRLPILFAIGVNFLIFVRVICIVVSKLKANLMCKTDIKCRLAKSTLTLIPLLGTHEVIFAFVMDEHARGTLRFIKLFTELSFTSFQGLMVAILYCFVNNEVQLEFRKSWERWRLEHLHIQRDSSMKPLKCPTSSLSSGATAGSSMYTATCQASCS

Structure (SMILES) | IC50 [1] [pM] | Chemical stability: Chemical degradation over 14 days at 37° C. [2] [%] | EC50 [3] [pM]
CC[C@H](C)[C@H](NC(=O)[C@H](Cc1ccccc1)NC(=O)[C@H](CCC(=O)O)NC(=O)[C@H](CCCNC(=N)N)NC(=O)[C@H](C)NC(=O)[C@H](C)NC(=O)[C@H](CCC(N)=O)NC(=O)[C@H](CCC(=O)O)NC(=O)[C@H](CCC(=O)O)NC(=O)[C@H](CC(C)C)NC(=O)[C@H](Cc1ccc(O)cc1)NC(=O)[C@H](CCCCN)NC(=O)[C@H](CO)NC(=O)[C@H](Cc1ccc(O)cc1)NC(=O)[C@H](CC(=O)O)NC(=O)[C@H](CO)NC(=O)[C@@H](NC(=O)[C@H](Cc1ccccc1)NC(=O)[C@@H](NC(=O)CNC(=O)[C@H](Cc1c[nH]cn1)NC(=O)C1(NC(=O)CCc2c[nH]cn2)CCC1)[C@@H](C)O)[C@@H](C)O)C(=O)N[C@@H](C)C(=O)N[C@@H](Cc1c[nH]c2ccccc12)C(=O)N[C@@H](CC(C)C)C(=O)N[C@@H](CC(C)C)C(=O)N[C@@H](CCCCN)C(=O)N[C@@H](CCCCNC(=O)CNC(=O)[C@H](CO)NC(=O)[C@H](CCC(=O)O)NC(=O)CNC(=O)[C@H](CO)NC(=O)CC[C@H](NC(=O)CC[C@H](NC(=O)CCCCCCCCCCCCCCCCC(=O)O)C(=O)O)C(=O)O)C(N)=O [Example 1, N^ε35-[2-[[(2S)-2-[[(2S)-4-carboxy-2-[[2-[[(2S)-2-[[(4S)-4-carboxy-4-[[(4S)-4-carboxy-4-(17-carboxyheptadecanoylamino)butanoyl]amino]butanoyl]amino]-3-hydroxypropanoyl]amino]acetyl]amino]butanoyl]amino]-3-hydroxypropanoyl]amino]acetyl]-[Imp7,Acb8,His9,Tyr16,Lys18,Glu22,Arg26,Leu33,Lys35]-GLP-1-(7-35)-peptide amide] (I: Desaminohistidyl-[Ac4c]HGTFTSDYSKYLEEQAAREFIAWLLKK-NH2 / II: {C18 diacid-γGlu-γGlu}-SGESG; amide I:28-II:C) | 700 | 1.5 | 
CC[C@H](C)[C@H](NC(=O)[C@H](Cc1ccccc1)NC(=O)[C@H](CCC(=O)O)NC(=O)[C@H](CCCNC(=N)N)NC(=O)[C@H](C)NC(=O)[C@H](C)NC(=O)[C@H](CCC(N)=O)NC(=O)[C@H](CCC(=O)O)NC(=O)[C@H](CCC(=O)O)NC(=O)[C@H](CC(C)C)NC(=O)[C@H](Cc1ccc(O)cc1)NC(=O)[C@H](CCCCN)NC(=O)[C@H](CO)NC(=O)[C@H](Cc1ccc(O)cc1)NC(=O)[C@H](CC(=O)O)NC(=O)[C@H](CO)NC(=O)[C@@H](NC(=O)[C@H](Cc1ccccc1)NC(=O)[C@@H](NC(=O)CNC(=O)[C@H](Cc1c[nH]cn1)NC(=O)C1(NC(=O)CCc2c[nH]cn2)CCC1)[C@@H](C)O)[C@@H](C)O)C(=O)N[C@@H](C)C(=O)N[C@@H](Cc1c[nH]c2ccccc12)C(=O)N[C@@H](CC(C)C)C(=O)N[C@@H](CC(C)C)C(=O)N[C@@H](CCCCN)C(=O)N[C@@H](CCCCNC(=O)CC[C@H](NC(=O)COCCOCCNC(=O)CC[C@H](NC(=O)COCCOCCNC(=O)CC[C@H](NC(=O)COCCOCCNC(=O)CC[C@H](NC(=O)CC[C@H](NC(=O)CCCCCCCCCCCCCCCCC(=O)O)C(=O)O)C(=O)O)C(=O)O)C(=O)O)C(=O)O)C(N)=O [Example 21, N^ε35-[(4S)-4-carboxy-4-[[2-[2-[2-[[(4S)-4-carboxy-4-[[2-[2-[2-[[(4S)-4-carboxy-4-[[2-[2-[2-[[(4S)-4-carboxy-4-[[(4S)-4-carboxy-4-(17-carboxyheptadecanoylamino)butanoyl]amino]butanoyl]amino]ethoxy]ethoxy]acetyl]amino]butanoyl]amino]ethoxy]ethoxy]acetyl]amino]butanoyl]amino]ethoxy]ethoxy]acetyl]amino]butanoyl]-[Imp7,Acb8,His9,Tyr16,Lys18,Glu22,Arg26,Leu33,Lys35]-GLP-1-(7-35)-peptide amide] (Desaminohistidyl-[Ac4c]HGTFTSDYSKYLEEQAAREFIAWLLKK([γGlu-AEEA-γGlu-AEEA-γGlu-AEEA-γGlu-γGlu-C18 diacid])-NH2) |  | 1.6 | 3
CC[C@H](C)[C@H](NC(=O)[C@H](Cc1ccccc1)NC(=O)[C@H](CCC(=O)O)NC(=O)[C@H](CCCNC(=N)N)NC(=O)[C@H](C)NC(=O)[C@H](C)NC(=O)[C@H](CCCNC(=N)N)NC(=O)[C@H](CCCNC(=N)N)NC(=O)[C@H](CCC(=O)O)NC(=O)[C@H](CC(C)C)NC(=O)[C@H](Cc1ccc(O)cc1)NC(=O)[C@H](CCCCN)NC(=O)[C@H](CO)NC(=O)[C@H](Cc1ccc(O)cc1)NC(=O)[C@H](CC(=O)O)NC(=O)[C@H](CO)NC(=O)[C@@H](NC(=O)[C@H](Cc1ccccc1)NC(=O)[C@@H](NC(=O)CNC(=O)[C@H](Cc1c[nH]cn1)NC(=O)C1(NC(=O)CCc2c[nH]cn2)CCC1)[C@@H](C)O)[C@@H](C)O)C(=O)N[C@@H](C)C(=O)N[C@@H](Cc1c[nH]c2ccccc12)C(=O)N[C@@H](CC(C)C)C(=O)N[C@@H](CC(C)C)C(=O)N[C@@H](CCCCN)C(=O)N[C@@H](CCCCNC(=O)CC[C@H](NC(=O)COCCOCCNC(=O)CC[C@H](NC(=O)COCCOCCNC(=O)CC[C@H](NC(=O)COCCOCCNC(=O)CC[C@H](NC(=O)CC[C@H](NC(=O)CCCCCCCCCCCCCCCCC(=O)O)C(=O)O)C(=O)O)C(=O)O)C(=O)O)C(=O)O)C(N)=O [Example 24, N^ε35-[(4S)-4-carboxy-4-[[2-[2-[2-[[(4S)-4-carboxy-4-[[2-[2-[2-[[(4S)-4-carboxy-4-[[2-[2-[2-[[(4S)-4-carboxy-4-[[(4S)-4-carboxy-4-(17-carboxyheptadecanoylamino)butanoyl]amino]butanoyl]amino]ethoxy]ethoxy]acetyl]amino]butanoyl]amino]ethoxy]ethoxy]acetyl]amino]butanoyl]amino]ethoxy]ethoxy]acetyl]amino]butanoyl]-[Imp7,Acb8,His9,Tyr16,Lys18,Arg22,Arg23,Arg26, Leu33, Lys35]-GLP-1-(7-35)-peptide amide] (Desaminohistidyl-[Ac4c]HGTFTSDYSKYLERRAAREFIAWLLKK([γGlu-AEEA-γGlu-AEEA-γGlu-AEEA-γGlu-γGlu-C18 diacid])-NH2) |  | 2.2 | 8

— patent US9988430B2, “Stable GLP-1 based GLP-1/glucagon receptor co-agonists” (Novo Nordisk A/S, priority 2014, dated 2018)
